Reference: patent publication US20240374744A1, “PROTEIN AND PHARMACEUTICAL COMPOSITION COMPRISING SAME FOR PREVENTION OR TREATMENT OF CANCER” (CELLEMEDY CO., LTD, priority 2021, published 2024)

Key:
Assay type in all cases: cell-based
[1] = system: Normal lung cells WI-38; assay: CCK (cell counting kit) cytotoxicity assay, WI-38; details: WI-38 cell; anticancer drug alone vs protein nanoparticle conjugate, from IC50
Protocol: (§1) Normal lung cells WI-38 and IMR-90, and normal colon cells CCD-18co were grown in 96-well microplate with 1×10^4 cells/well for 36 hours, and the cytotoxicity when only anticancer drug was added and the cytotoxicity when protein nanoparticle-anticancer drug conjugate was added were compared.

[2] = system: Normal lung cells IMR-90; assay: CCK (cell counting kit) cytotoxicity assay, IMR-90; details: IMR-90 cell; anticancer drug alone vs protein nanoparticle conjugate, from IC50
Protocol: as §1

[3] = system: normal colon cells CCD-18co; assay: CCK (cell counting kit) cytotoxicity assay, CCD-18co; details: CCD-18co cell; anticancer drug alone vs protein nanoparticle conjugate, from IC50
Protocol: as §1

Row | SMILES | drug toxicity reduction (DTR) [1] | drug toxicity reduction (DTR) [2] | drug toxicity reduction (DTR) [3]
1 | COc1cccc2c1C(=O)c1c(O)c3c(c(O)c1C2=O)C[C@@](O)(C(=O)CO)C[C@@H]3O[C@H]1C[C@H](N)[C@H](O)[C@H](C)O1 [DOX, doxorubicin] | 263 | 316 | 91
2 | Nc1ccn([C@@H]2O[C@H](CO)[C@@H](O)C2(F)F)c(=O)n1 [GEM, gemcitabine] | 3162 | 7244 | 8913
